Ends that are not written are not given here.
Tested on: SAg-specific hybridoma cells / T cell line with VAVY APC
Assay: Antigen Processing Independent Presentation System (APIPS) assay, fresh or fixed VAVY APC
Assay type: cell-based, DR3 mice
Details: DR3 hybridoma clone (IL-2, 48 h) or T cell line (IFN-γ, 24 h)
How it was run: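 SAg-specific hybridomas (5×10^4) or peptide-restimulated T cell lines from immunized DR3 mice were cultured with fresh or 0.5% paraformaldehyde-fixed (5 min, RT) VAVY APCs and peptide (10 or 25 μg/ml). Read-out: IL-2 ELISA at 48 h for hybridomas, IFN-γ ELISA at 24 h for T cell lines.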

| Substance | behaves as apitope (response to peptide presented by fresh or fixed APC) |
| --- | --- |
| KKKVIFKKISRDKSVTIYLGKKK-NH2 [HIP-115NE3-KKK] | behave as apitopes |
| LPLLANNRERRGIA-NH2 [HIP-24HM3, LPLLANNRERRGIA] | behave as apitopes |
| KKKLTFRRDLYFSRVQVYKKK-NH2 [HIP-17J-KKK] | behave as apitopes |
| VIFKKISRDKSVTIYLG-NH2 [HIP-115NE3, VIFKKISRDKSVTIYLG] | behave as apitopes |
| LTKTLTLLPLLANNRERR-NH2 [HIP-24DG, LTKTLTLLPLLANNRERR] | behave as apitopes |

— patent publication US11542316B2, “S-Arrestin peptides and therapeutic uses thereof” (APITOPE INTERNATIONAL NV, priority 2017, dated 2023)
